The subject of one data set is patients with RMS. Format: in vivo, human. The settings on record: human, in vivo. The procedure:
Ofatumumab was investigated in 1882 patients with RMS from two identical Phase III randomized, double-blind, double-dummy, active-comparator controlled, parallel-group, multicenter studies of identical design (Study I and Study II). Patients were randomized to receive either ofatumumab, OMB (20 mg s.c injections every 4 weeks, after an initial loading regimen of 3 injections on Day 1, 7, and 14), or teriflunomide, TER (14 mg p.o. once a day) as active comparator. For brevity, the teriflunomide data are not shown hereinafter.
The maximum treatment duration for an individual patient was 30 study months (approximately 2.5 years). The two studies included a total of 71 patients of Asian race (36 patients in ofatumumab and 35 patients in teriflunomide treatment groups). This Example also includes the Asian patients data from oncology studies (Study A and Study B), as supportive data, where required.
For the safety analyses of this report, non-serious treatment emergent adverse events (TEAEs) up to and including safety cut-off (i.e. 100 days after last study drug administration) and serious TEAEs regardless of the safety cutoff were considered (if reported prior to the data cut-off of Studies I and II). Common terminology criteria for adverse events (CTCAE) grading was used to record the severity of each AE. The latest version of CTCAE available at the time of TEAE reporting was used. […] The three most frequently reported AEs by SOC were ‘General disorders and administration site conditions’ ‘Infections and infestations’ and ‘Injury, poisoning and procedural complications’ in the Asian and ROW subgroups by race (Table 7). […] In the Asian subgroup, 1 patient experienced SAEs of urinary tract infections, urosepsis and testicular infarction in the ofatumumab group and 1 patient reported an SAE of nephrolithiasis in the teriflunomide group (Table 8). Due to the small number of Asian patients by race and region, results should be interpreted with caution.
AEs of special interest were summarized by risk name, PT and treatment. Furthermore, the incidence of any AE that fulfilled the search terms as defined in eCRS were summarized by risk name, level, and maximum CTCAE grade. In this section, AESIs are first described for subgroups by race and then by region. […] The definitions of AEs of special interest correspond to the identified or potential risks for ofatumumab and its class of drug as well as those for the comparator (teriflunomide). AESIs, based on the safety profiles of ofatumumab, comparator, and other anti-CD20 mABs are: • Injection-related reactions including injection-systemic reaction and injection-site • reactions • Infections, including opportunistic infections, HBV infection reactivation and PML • Malignant and premalignant disorders • Hepatic Safety • Neutropenia

In the next data set the test system is serum Ig levels. The settings on record: cited from earlier work.
A further data set deals with serum IgG and IgM levels. The settings on record: cited from earlier work.

Regarding `C/C(O)=C(\C#N)C(=O)Nc1ccc(C(F)(F)F)cc1` [teriflunomide], in the data set with patients with RMS, the “AE by PT: alopecia, %” value was determined as 15.3%; the “AE by PT: alopecia, patients” value turned out to be 138; the “AE by PT: nasopharyngitis, %” value was 17.2%; the “AE by PT: nasopharyngitis, patients” value is 155. In addition, in the data set with patients with RMS, the “AE by PT: pyrexia, %” value is recorded as 14.3%; the “AE by PT: pyrexia, patients” value is 5; the “AE by PT: upper respiratory tract infection, %” value is given as 5.7%; the “AE by PT: upper respiratory tract infection, patients” value is 2. Further, in the data set on patients with RMS, the “Patients who experienced at least 1 AE, %” value was determined as 84.2%; the “SAE by PT: Appendicitis, %” value was found to be 0.2%; the “SAE by PT: Appendicitis, patients” value is listed as 2; the “Serious TEAE: Infections and infestations, %” value is given as 1.9%.
As to ocrelizumab, in the data set on serum Ig levels (after two years (96 weeks), FIG. 6), the “Reduction of IgG levels” value is on record as “approx. 5%”. Further, the “Reduction in serum Ig levels, approximate mean rate per year” value with serum Ig levels (per year, over 5.5 years) is given as 3-4%.
Take rituximab [RTX]: in the data set with serum IgG and IgM levels, the “Decrease of IgM levels in serum per year” value is 5.0%.

The record behind these values is US20240228647A1, “OFATUMUMAB FOR TREATING MULTIPLE SCLEROSIS IN ASIAN PATIENTS” (Novartis AG, priority 2021, published 2024).
